Here are results for 24 molecules from ChEMBL document CHEMBL4393729, “Sleep modulating agents” (Bioorg Med Chem Lett, 2019).

SMILES strings stand for the structures.

What is called half-life is the time in which the quantity being followed falls by half. Lower therefore signals rapid decline. For orientation: bioavailability means the share of a dose that reaches the circulation, judged against a reference dose that is usually intravenous.

Data set [1] is described as follows: Half life in human at 5 to 20 mg. The data set is classed as ADME.
Data set [2] in a line: Half life in human at 200 mg. The data set is classed as ADME.
Data set [3] in a line: Half life in human at 150 mg. The data set is classed as ADME.
Data set [4] is described as follows: Half life in human at 20 mg. The data set is classed as ADME.
Data set [5] can be described thus: Half life in human at 1 to 6 mg. The data set is classed as ADME.
A short description of data set [6]: Half life in human at 1 to 3 mg. The data set is classed as ADME.
A short description of data set [7]: Half life in human at 25 to 400 mg.
The nature of data set [8]: Half life in human. The data set is classed as ADME.
Data set [9] is described as follows: Half life in human at 1 mg. The data set is classed as ADME.
The nature of data set [10]: Half life in human at 300 mg bid. The data set is classed as ADME. The settings on record: in vivo.
The nature of data set [11]: Half life in human at 5 mg administered three times in a day. The following applies: in vivo. The data set is classed as ADME.
The nature of data set [12]: Half life in human at 18 to 36 mg. The data set is classed as ADME.
Data set [13] can be described thus: Half life in human at 75 mg. The data set is classed as ADME.
The nature of data set [14]: Half life in human at 1 to 2 mg. The data set is classed as ADME.
A short description of data set [15]: Half life in human at 75 to 300 mg. The data set is classed as ADME.
Data set [16] can be described thus: Half life in human up to 3600 mg. The data set is classed as ADME.
Data set [17] can be described thus: Half life in human at 5 to 10 mg. The data set is classed as ADME.
A short description of data set [18]: Half life in human at 20 to 50 mg. The data set is classed as ADME.
Data set [19] can be described thus: Half life in human at 2250 mg administered as two doses. The following applies: in vivo. The data set is classed as ADME.
Data set [20] in a line: Oral bioavailability in human. The following applies: in vivo. The data set is classed as ADME, organism-based.
Data set [21] can be described thus: Half life in human at 8 mg treated 30 mins before bedtime. The data set is classed as ADME. The following applies: in vivo.

As to `Cc1ccc(-n2nccn2)c(C(=O)N2CCN(c3nc4cc(Cl)ccc4o3)CC[C@H]2C)c1` [SUVOREXANT], the half-life in data set [1] is 9 to 13 h.

Consider `NC(=O)C[S@@+]([O-])C(c1ccccc1)c1ccccc1` [ARMODAFINIL], for which the half-life in data set [2] and in data set [3] was 15 h throughout.

Molecule `COC(=O)C(c1ccccc1)C1CCCCN1` (stereo unspecified) [METHYLPHENIDATE] had a half-life in data set [4] of 2 h.

Turning to `CCC(=O)NC[C@@H]1C[C@H]1c1cccc2c1CCO2` [TASIMELTEON], the half-life in data set [4] fell in the range of 0.9 to 1.7 h.

For the molecule `CN(C)CC/C=C1\c2ccccc2COc2ccccc21` [E-DOXEPIN], the half-life in [5] was 8 to 24 h.

`OC1(c2ccc(Cl)cc2)c2ccccc2C2=NCCN21` (stereo unspecified) [MAZINDOL] gave a half-life in data set [6] of 10 to 13 h.

In turn, `OCCOCCN1CCN(C2=Nc3ccccc3Sc3ccccc32)CC1` [QUETIAPINE] showed a half-life in [7] of 6 h.

In [8], `NCCC(Oc1ccc(C(F)(F)F)cc1)c1ccccc1` (stereo unspecified) [NORFLUOXETINE] had a half-life of 360 to 408 h.

In data set [9], `CCOC(=O)c1ncn2c1CN(C)C(=O)c1cc(F)ccc1-2` [FLUMAZENIL] had a half-life of 0.6 to 1.2 h.

Molecule `CC[C@H]1OC(=O)[C@H](C)[C@@H](O[C@H]2C[C@@](C)(OC)[C@@H](O)[C@H](C)O2)[C@H](C)[C@@H](O[C@@H]2O[C@H](C)C[C@H](N(C)C)[C@H]2O)[C@](C)(OC)C[C@@H](C)C(=O)[C@H](C)[C@@H](O)[C@]1(C)O` [CLARITHROMYCIN] yielded a half-life in data set [10] of 5 to 7 h.

Molecule `NC[C@H](CC(=O)O)c1ccc(Cl)cc1` [ARBACLOFEN] yielded a half-life in [11] of 2 to 4 h.

Turning to `Clc1ccc(CCCOCCCN2CCCCC2)cc1` [PITOLISANT], in data set [12], the half-life was 10 h.

With `CNCCC(Oc1ccc(C(F)(F)F)cc1)c1ccccc1` (stereo unspecified) [FLUOXETINE], the half-life in [4] was 24 to 96 h.

Turning to `CN(C)CC(c1ccc(O)cc1)C1(O)CCCCC1` (stereo unspecified) [DESVENLAFAXINE], the half-life in data set [13] is 11 h.

With `Clc1ccc2c(c1)C(c1ccccc1)=NCc1nncn1-2` [ESTAZOLAM], the half-life in data set [14] lay in the range of 10 to 24 h.

`NC(=O)OC[C@H](N)Cc1ccccc1` [SOLRIAMFETOL] registered a half-life in data set [15] of 6 to 8 h.

On to `NC(=O)C[S@+]([O-])C(c1ccccc1)c1ccccc1` [(S)-MODAFINIL], for which the half-life in [2] is 4 h.

In turn, `NCC1(CC(=O)O)CCCCC1` [GABAPENTIN] came in with a half-life in data set [16] of 5 to 7 h.

Regarding `Cc1ccc(-c2nc3ccc(C)cn3c2CC(=O)N(C)C)cc1` [ZOLPIDEM], the half-life in data set [17] lay within 1.4 to 4.5 h.

`CN1CCN(C(=O)O[C@H]2c3nccnc3C(=O)N2c2ccc(Cl)cn2)CC1` [ESZOPICLONE] gave a half-life in data set [6] of 6 h.

For the molecule `COc1ccc2[nH]cc(CCNC(=O)c3cc(=O)cco3)c2c1` [PIROMELATINE], the half-life in data set [18] fell in the range of 1 to 3 h.

Regarding `O=C([O-])CCCO.[Na+]` [SODIUM OXYBATE], the half-life in data set [19] was 0.6 h.

As to `CCC(=O)NCC[C@@H]1CCc2ccc3c(c21)CCO3` [RAMELTEON], the bioavailability in data set [20] amounted to 1.8%. In addition, the half-life in data set [21] is 1 to 2.6 h.

For the molecule `COc1ccc(C(CN(C)C)C2(O)CCCCC2)cc1` (stereo unspecified) [VENLAFAXINE], in data set [13], the half-life was 5 h.
